Results published in PubChem BioAssay (NCI).
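Dose response: 5 concentrations. Exposure: 48 h. Format: 96-well plates. Endpoint: linear interpolation; highest concentration if not reached. GI50: concentration for 50% inhibition of growth. Definition used: TGI = concentration required for complete inhibition of growth.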

Legend:
Assay in all cases: DTP human tumour cell line panel, 48 h
786-0 renal = test system: 786-0 renal
A498 renal = test system: A498 renal
A549 NSCLC = test system: A549 NSCLC
ACHN renal = test system: ACHN renal
BT-549 breast = test system: BT-549 breast
CAKI-1 renal = test system: CAKI-1 renal
CCRF-CEM leukemia = test system: CCRF-CEM leukemia
COLO 205 colon = test system: COLO 205 colon
DU-145 prostate = test system: DU-145 prostate
EKVX NSCLC = test system: EKVX NSCLC
HCC-2998 colon = test system: HCC-2998 colon
HCT-116 colon = test system: HCT-116 colon
HCT-15 colon = test system: HCT-15 colon
HL-60(TB) leukemia = test system: HL-60(TB) leukemia
HOP-62 NSCLC = test system: HOP-62 NSCLC
HOP-92 NSCLC = test system: HOP-92 NSCLC
HS 578T breast = test system: HS 578T breast
HT29 colon = test system: HT29 colon
IGROV1 ovarian = test system: IGROV1 ovarian
K-562 leukemia = test system: K-562 leukemia
KM12 colon = test system: KM12 colon
LOX IMVI melanoma = test system: LOX IMVI melanoma
MALME-3M melanoma = test system: MALME-3M melanoma
MCF7 breast = test system: MCF7 breast
MDA-MB-231 breast = test system: MDA-MB-231 breast
MDA-MB-435 = test system: MDA-MB-435
MOLT-4 leukemia = test system: MOLT-4 leukemia
NCI-H226 lung = test system: NCI-H226 lung
NCI-H23 lung = test system: NCI-H23 lung
NCI-H460 lung = test system: NCI-H460 lung
NCI-H522 lung = test system: NCI-H522 lung
NCI/ADR-RES ovarian = test system: NCI/ADR-RES ovarian
OVCAR-3 ovarian = test system: OVCAR-3 ovarian
OVCAR-4 ovarian = test system: OVCAR-4 ovarian
OVCAR-5 ovarian = test system: OVCAR-5 ovarian
OVCAR-8 ovarian = test system: OVCAR-8 ovarian
PC-3 prostate = test system: PC-3 prostate
RPMI-8226 leukemia = test system: RPMI-8226 leukemia
RXF 393 renal = test system: RXF 393 renal
SF-268 CNS = test system: SF-268 CNS
SF-295 CNS = test system: SF-295 CNS
SF-539 CNS = test system: SF-539 CNS
SK-MEL-2 melanoma = test system: SK-MEL-2 melanoma
SK-MEL-28 melanoma = test system: SK-MEL-28 melanoma
SK-MEL-5 melanoma = test system: SK-MEL-5 melanoma
SK-OV-3 ovarian = test system: SK-OV-3 ovarian
SN12C renal = test system: SN12C renal
SNB-19 CNS = test system: SNB-19 CNS
SNB-75 CNS = test system: SNB-75 CNS
SR leukemia = test system: SR leukemia
SW-620 colon = test system: SW-620 colon
T-47D breast = test system: T-47D breast
TK-10 renal = test system: TK-10 renal
U251 CNS = test system: U251 CNS
UACC-257 melanoma = test system: UACC-257 melanoma
UACC-62 melanoma = test system: UACC-62 melanoma
UO-31 renal = test system: UO-31 renal

Question: Which results are given for `CSC1=Nc2c(c(C)c(C)n2COC(CO)CO)C2=NC(=O)C(C)N12` (stereo not drawn)?
Answer: GI50 (786-0 renal): > 100 µM; TGI (786-0 renal): > 100 µM; GI50 (A498 renal): > 100 µM; TGI (A498 renal): > 100 µM; GI50 (A549 NSCLC): > 100 µM; TGI (A549 NSCLC): > 100 µM; GI50 (ACHN renal): > 100 µM; TGI (ACHN renal): > 100 µM; GI50 (BT-549 breast): > 100 µM; TGI (BT-549 breast): > 100 µM; GI50 (CAKI-1 renal): > 100 µM; TGI (CAKI-1 renal): > 100 µM; GI50 (CCRF-CEM leukemia): > 100 µM; TGI (CCRF-CEM leukemia): > 100 µM; GI50 (COLO 205 colon): > 100 µM; TGI (COLO 205 colon): > 100 µM; GI50 (DU-145 prostate): > 100 µM; TGI (DU-145 prostate): > 100 µM; GI50 (EKVX NSCLC): > 100 µM; TGI (EKVX NSCLC): > 100 µM; GI50 (HCC-2998 colon): > 100 µM; TGI (HCC-2998 colon): > 100 µM; GI50 (HCT-116 colon): > 100 µM; TGI (HCT-116 colon): > 100 µM; GI50 (HCT-15 colon): > 100 µM; TGI (HCT-15 colon): > 100 µM; TGI (HL-60(TB) leukemia): > 100 µM; GI50 (HOP-62 NSCLC): > 100 µM; TGI (HOP-62 NSCLC): > 100 µM; GI50 (HOP-92 NSCLC): > 100 µM; TGI (HOP-92 NSCLC): > 100 µM; GI50 (HS 578T breast): > 100 µM; TGI (HS 578T breast): > 100 µM; GI50 (HT29 colon): > 100 µM; TGI (HT29 colon): > 100 µM; GI50 (IGROV1 ovarian): 39.6 µM; TGI (IGROV1 ovarian): > 100 µM; GI50 (K-562 leukemia): > 100 µM; TGI (K-562 leukemia): > 100 µM; GI50 (KM12 colon): > 100 µM; TGI (KM12 colon): > 100 µM; GI50 (LOX IMVI melanoma): > 100 µM; TGI (LOX IMVI melanoma): > 100 µM; GI50 (MALME-3M melanoma): > 100 µM; TGI (MALME-3M melanoma): > 100 µM; GI50 (MCF7 breast): > 100 µM; TGI (MCF7 breast): > 100 µM; GI50 (MDA-MB-231 breast): > 100 µM; TGI (MDA-MB-231 breast): > 100 µM; GI50 (MDA-MB-435): > 100 µM; TGI (MDA-MB-435): > 100 µM; GI50 (MOLT-4 leukemia): > 100 µM; TGI (MOLT-4 leukemia): > 100 µM; GI50 (NCI-H226 lung): > 100 µM; TGI (NCI-H226 lung): > 100 µM; GI50 (NCI-H23 lung): > 100 µM; TGI (NCI-H23 lung): > 100 µM; GI50 (NCI-H460 lung): > 100 µM; TGI (NCI-H460 lung): > 100 µM; GI50 (NCI-H522 lung): > 100 µM; TGI (NCI-H522 lung): > 100 µM; GI50 (NCI/ADR-RES ovarian): > 100 µM; TGI (NCI/ADR-RES ovarian): > 100 µM; GI50 (OVCAR-3 ovarian): > 100 µM; TGI (OVCAR-3 ovarian): > 100 µM; GI50 (OVCAR-4 ovarian): > 100 µM; TGI (OVCAR-4 ovarian): > 100 µM; GI50 (OVCAR-5 ovarian): > 100 µM; TGI (OVCAR-5 ovarian): > 100 µM; GI50 (OVCAR-8 ovarian): > 100 µM; TGI (OVCAR-8 ovarian): > 100 µM; GI50 (PC-3 prostate): > 100 µM; TGI (PC-3 prostate): > 100 µM; GI50 (RPMI-8226 leukemia): > 100 µM; TGI (RPMI-8226 leukemia): > 100 µM; GI50 (RXF 393 renal): > 100 µM; TGI (RXF 393 renal): > 100 µM; GI50 (SF-268 CNS): > 100 µM; TGI (SF-268 CNS): > 100 µM; GI50 (SF-295 CNS): > 100 µM; TGI (SF-295 CNS): > 100 µM; GI50 (SF-539 CNS): > 100 µM; TGI (SF-539 CNS): > 100 µM; GI50 (SK-MEL-2 melanoma): > 100 µM; TGI (SK-MEL-2 melanoma): > 100 µM; GI50 (SK-MEL-28 melanoma): > 100 µM; TGI (SK-MEL-28 melanoma): > 100 µM; GI50 (SK-MEL-5 melanoma): > 100 µM; TGI (SK-MEL-5 melanoma): > 100 µM; GI50 (SK-OV-3 ovarian): > 100 µM; TGI (SK-OV-3 ovarian): > 100 µM; GI50 (SN12C renal): > 100 µM; TGI (SN12C renal): > 100 µM; GI50 (SNB-19 CNS): > 100 µM; TGI (SNB-19 CNS): > 100 µM; GI50 (SNB-75 CNS): 26.3 µM; TGI (SNB-75 CNS): > 100 µM; GI50 (SR leukemia): 2.48 µM; TGI (SR leukemia): > 100 µM; GI50 (SW-620 colon): > 100 µM; TGI (SW-620 colon): > 100 µM; GI50 (T-47D breast): > 100 µM; TGI (T-47D breast): > 100 µM; GI50 (TK-10 renal): > 100 µM; TGI (TK-10 renal): > 100 µM; GI50 (U251 CNS): > 100 µM; TGI (U251 CNS): > 100 µM; GI50 (UACC-257 melanoma): > 100 µM; TGI (UACC-257 melanoma): > 100 µM; GI50 (UACC-62 melanoma): > 100 µM; TGI (UACC-62 melanoma): > 100 µM; GI50 (UO-31 renal): > 100 µM; TGI (UO-31 renal): > 100 µM
